{"source": "patent US11607422B2", "about": "“Uttroside B and derivatives thereof as therapeutics for hepatocellular carcinoma” (Rajiv Gandhi Centre for Biotechnology, an Autonomous …, priority 2016, dated 2023)", "key": {"HepG2 cells": {"test_system": "HepG2 cells", "test": "MTT cell viability assay in HepG2 cells", "format": "cell-based, human", "details": "72 h, MTT assay; read-out: IC50, cytotoxicity towards HepG2 cells", "protocol": "Stocks of crude extracts and isolated compound of S. nigrum was prepared in DMSO for the in vitro studies and stored at −20° C. The DMSO concentration in all studies, including controls, was ≤0.2%. Cell viability assay was performed after 72 h of drug treatment while whole cell lysate preparation and cell cycle analysis were done after 24 h and 48 h of drug treatment. For studying NF-κB and AP-1, Uttroside B was incubated for 2 h before extraction.\nMTT [3-(4,5-dimethylthiazole-2-yl)-2,5-diphenyltetrazolium bromide] assay is a standard colorimetric assay, suitable for analyzing proliferation, viability, and cytotoxicity. Briefly, the HepG2 cells were seeded in 96-well plates (2000 cells/well). […] Fresh media containing 25 μL of MTT solution (5 mg/mL in PBS) and 75 μL of complete medium was added to the wells and incubated for 2 h. At the end of incubation, lysis buffer (20% sodium dodecyl sulphate in 50% dimethyl formamide)was added to the wells (0.1 mL/well) and incubated for another 1 h at 37° C. At the end of incubation, the optical density was measured at 570 nm using ELISA plate reader (Bio-Rad). The relative cell viability in percentage was calculated as (A570 of treated samples/A570 of untreated samples)×100. The IC50 values were extrapolated from polynomial regression analysis of study data.^17"}, "[1]": {"test_system": "MAPK pathway in HepG2 cells", "test": "Western blot of MAPK phosphorylation (p-JNK, p-38, p-42/44)", "format": "cell-based, human", "protocol": "(§1) FIGS. 4A-4E are images showing Uttroside B inhibits MAPK and mTOR signaling, some of the crucial survival signals in liver cancer. […] HepG2 cells were treated with Uttroside B for different time intervals (0-240 min) and the whole cell lysate was resolved on a 10% gel and immunoblotted against phospho-ERK1/2 and phospho-Akt antibodies. Taxol was used as a positive control. […] HepG2 cells were treated with Uttroside B at different time intervals and the whole cell lysate was resolved on an 8% gel and immunoblotted against phospho-mTOR (2448) and phospho-mTOR (2481) antibodies.\n(§2) Western blot analysis. Approximately 0.5×10^6 cells were grown on 60 mm culture plates and exposed to drugs as indicated for the desired time. The cells were then scraped out, washed in ice cold 1× PBS and pelleted down at 13000 rpm for 2 min. […]"}, "[2]": {"test_system": "mTOR pathway in HepG2 cells", "test": "Western blot of mTOR and downstream target phosphorylation", "format": "cell-based, human", "protocol": "as §1, §2\nUttroside B inhibits mTOR signaling, a crucial survival signal in liver cancer. […] Concomitantly, the phosphorylation of p70S6 kinase and 4E-BP-1, two m-TOR substrates whose phosphorylation can be considered as the read out of m-TOR activity, was found reduced in response to Uttroside B-treatment. […]"}, "[3]": {"test_system": "autophagy related proteins in Hep3B cells", "test": "Western blot of autophagy related proteins in Hep3B cells", "format": "cell-based", "details": "time dependent", "protocol": "Western blot analysis. Approximately 0.5×10^6 cells were grown on 60 mm culture plates and exposed to drugs as indicated for the desired time. The cells were then scraped out, washed in ice cold 1× PBS and pelleted down at 13000 rpm for 2 min. The pelleted cells were suspended in 150 μL of ice-cold whole cell lysis buffer[(20 mMTris of pH 7.4, 250 mM NaCl, 2 mM EDTA, 0.1% Triton, 1 mM DTT (1,4-dithiothreitol), 0.5 mM PMSF, 4 mM sodium orthovanadate, aprotinin (5 mg m/L) and leupeptin (5 mg m/L)] and kept in ice for 30 min, with intermittent vortexing every 5 min. After incubation, the lysate was centrifuged at 13000 rpm for 10 min at 4° C. and the supernatant was collected. The total protein content in the lysate was estimated by Bradford's method, and was then denatured by boiling with 5× loading dye before separating the proteins by SDSpolyacrylamidegel electrophoresis (SDS-PAGE). […]"}}}
{"smiles": "C[C@H](CC[C@@]1(O)O[C@H]2C[C@H]3[C@@H]4CC[C@H]5C[C@@H](O[C@@H]6O[C@H](CO)[C@H](O[C@@H]7O[C@H](CO)[C@@H](O)[C@H](O[C@@H]8OC[C@@H](O)[C@H](O)[C@H]8O)[C@H]7O[C@@H]7O[C@H](CO)[C@@H](O)[C@H](O)[C@H]7O)[C@H](O)[C@H]6O)CC[C@]5(C)[C@H]4CC[C@]3(C)[C@H]2[C@@H]1C)CO[C@@H]1O[C@H](CO)[C@@H](O)[C@H](O)[C@H]1O", "note": "[Uttroside B]", "values": [{"measurement": "IC50", "setting": "HepG2 cells", "value": 0.5, "unit": "µM"}, {"measurement": "PMA-induced activation of p-JNK, p-38 and p-42/44", "setting": "[1]", "value": "down-regulated"}, {"measurement": "basal activation of MAPK pathway (p-42/44, p-JNK)", "setting": "[1]", "value": "significantly down-regulated"}, {"measurement": "phosphorylation of p70S6 kinase and 4E-BP-1", "setting": "[2]", "value": "found reduced"}, {"measurement": "phosphorylation of mTOR", "setting": "[2]; different time intervals", "value": "time dependent decrease in the phosphorylation of m-TOR at 2448 and 2481 phosphorylation sites"}, {"measurement": "expression of autophagy related proteins, Hep3B", "setting": "[3]", "value": "induced Atg5, Atg7 and LC3 in a time dependent manner"}]}
